Data: US9510598B2, “Nitrogen-containing heterocyclic compounds for plant disease control” (BAYER CROPSCIENCE AG, priority 2012, dated 2016)
Like-named read-outs stand apart in the source and are kept apart here.

Key:
Puccinia recondita = assay: In vivo preventive test on Puccinia recondita (brown rust on wheat); settings: 500 ppm; wheat plants sprayed 24 hours before contamination; grading 10 days after contamination vs control plants
Description: Wheat plants (“Scipion” variety), sown in starter cups on a 50/50 peat soil-pozzolana substrate and grown at 22° C. (12 h)/20° C. (12 h), are treated at the 1-leaf stage (10 cm height) by spraying with the active ingredient prepared as described above. Plants, used as controls, are treated with the mixture of acetone/tween/DMSO/water not containing the active material. After 24 hours, the plants are contaminated by spraying the leaves with an aqueous suspension of Puccinia recondita spores (100 000 spores per ml).

Uromyces appendiculatus = assay: In vivo preventive test on Uromyces appendiculatus (bean rust); settings: 500 ppm; bean plants sprayed 24 hours before contamination; grading 10 days after contamination vs control plants
Description: Bean plants (“Saxa” variety), sown in starter cups on a 50/50 peat soil-pozzolana substrate and grown at 24° C., are treated at the 2-leaf stage (9 cm height) by spraying with the active ingredient prepared as described above. Plants, used as controls, are treated with the mixture of acetone/tween/DMSO/water not containing the active material. After 24 hours, the plants are contaminated by spraying the leaves with an aqueous suspension of Uromyces appendiculatus spores (150 000 spores per ml).

Septoria tritici = assay: In vivo preventive test on Septoria tritici (leaf spot on wheat); settings: 500 ppm; wheat plants sprayed 24 hours before contamination; grading 21 to 28 days after contamination vs control plants
Summary of the method: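 Scipion wheat at 1-leaf stage sprayed with compound, controls receiving acetone/tween/DMSO/water vehicle; 24 h later leaves inoculated with Septoria tritici spores (500 000 spores per ml). Efficacy (%) graded versus control plants 21 to 28 days after contamination.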

Sphaerotheca fuliginea = assay: In vivo preventive test on Sphaerotheca fuliginea (powdery mildew on cucurbits); settings: 500 ppm; gherkin plants sprayed 24 hours before contamination; grading 12 days after contamination vs control plants
Summary of the method: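 Preventive spray of gherkin plants at Z11 cotyledon stage, grown at 24° C; inoculation 24 hours later with Sphaerotheca fuliginea spores (100 000 spores per ml). Efficacy graded 12 days post-inoculation as % versus solvent-treated control plants.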

[1] = type: physicochemical
Botrytis cinerea = assay: In vivo preventive test on Botrytis cinerea (grey mould); settings: 500 ppm; gherkin plants sprayed 24 hours before contamination; grading 4-5 days after contamination vs control plants
Summary of the method: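 Gherkin plants ("Vert petit de Paris") sprayed with compound at Z11 cotyledon stage, then inoculated 24 h later with B. cinerea spores (50 000/ml) in PDB/fructose/NH4NO3/KH2PO4 nutrient solution. Incubated at 17 °C, 80% RH; % efficacy versus solvent-treated controls graded 4–5 days after contamination.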

Phytophthora infestans = type: in vivo; settings: 500 ppm; tomato plants sprayed 24 hours before contamination; grading 5 days after contamination vs control plants
Pyrenophora teres = assay: In vivo preventive test on Pyrenophora teres (net blotch on barley); settings: 500 ppm; barley plants sprayed 24 hours before contamination; grading 12 days after contamination vs control plants
Description: Barley plants (“Plaisant” variety), sown in starter cups on a 50/50 peat soil-pozzolana substrate and grown at 22° C. (12 h)/20° C. (12 h), are treated at the 1-leaf stage (10 cm height) by spraying with the active ingredient prepared as described above. Plants, used as controls, are treated with the mixture of acetone/tween/DMSO/water not containing the active material. After 24 hours, the plants are contaminated by spraying the leaves with an aqueous suspension of Pyrenophora teres spores (12 000 spores per ml). The spores are collected from a 12-day-old culture. […] Grading (% of efficacy) is carried out 12 days after the contamination, in comparison with the control plants.

Alternaria brassicae = assay: In vivo preventive test on Alternaria brassicae (leaf spot on radish); settings: 500 ppm; radish plants sprayed 24 hours before contamination; grading 5 days after contamination vs control plants
Description: Radish plants (“Pernod Clair” variety), sown in starter cups on a 50/50 peat soil-pozzolana substrate and grown at 17° C., are treated at the 2-leaf stage by spraying with the active ingredient prepared as described above. Plants, used as controls, are treated with the mixture of acetone/tween/DMSO/water not containing the active material. After 24 hours, the plants are contaminated by spraying the leaves with an aqueous suspension of Alternaria brassicae spores (50 000 spores per ml). The spores are collected from a 15-day-old culture. […] Grading (% of efficacy) is carried out 5 days after the contamination, in comparison with the control plants.

[2] = method [a]: HPLC/LC-MS on reversed phase at pH 2.7, 0.1% formic acid in water / acetonitrile, gradient 10% to 95% acetonitrile
[3] = method [a]: HPLC/LC-MS on reversed phase at pH 2.7, 0.1% formic acid in water / acetonitrile, linear gradient 10% to 95% acetonitrile
[4] = HPLC on reversed phase columns, method [a]: pH 2.7, 0.1% formic acid in water / acetonitrile, linear gradient 10% to 95% acetonitrile

| Structure (SMILES) | % of efficacy (protection) (Puccinia recondita) | % of efficacy (protection) (Uromyces appendiculatus) | % of efficacy (protection) (Septoria tritici) | % of efficacy (protection) (Sphaerotheca fuliginea) | log P [1, 2] | % of efficacy (protection) (Botrytis cinerea) | % of efficacy (protection) (Phytophthora infestans) | % of efficacy (protection) (Pyrenophora teres) | log P [1, 3] | % of efficacy (protection) (Alternaria brassicae) | log P [1, 4] | log P ([1]; HPLC on reversed phase columns, method [a]: pH 2.7, 0.1% formic acid in water and acetonitrile, linear gradient 10% to 95% acetonitrile) |
| --- | --- | --- | --- | --- | --- | --- | --- | --- | --- | --- | --- | --- |
| C#Cc1cnc2ccc(C3=NOC(CC)(C(=O)NCC4COC(C)(C)O4)C3)cc2c1 (mixture of isomers) [compound 441] | 83% | 91% | 100% | 94% | 2.66[a] |  |  |  |  |  |  |  |
| CC(C)NC(=O)C1(C)CC(c2ccc3ncc(-c4ccco4)cc3c2)=NO1 (racemic) [compound 382] | 79% | 89% |  |  | 2.77[a] |  |  |  |  |  |  |  |
| C#Cc1cnc2ccc(C3=NOC(OC)(C(=O)NC4CCC4)C3)cc2c1 (racemic) [compound 429] | 89% | 71% | 100% | 83% | 2.54[a] | 100% |  |  |  |  |  |  |
| Cn1cc(NC(=O)C2(C)CC(c3ccc4ncc(Br)cc4c3)=NO2)cn1 (racemic) [compound 434] | 88% | 97% | 100% |  | 2.17[a] |  |  |  |  |  |  |  |
| C#Cc1cnc2ccc(C3=NOC(CC)(C(=O)NCc4cn(CC)nc4C)C3)cc2c1 (racemic) [compound 438] | 88% | 97% | 100% | 89% | 2.37[a] |  | 87% |  |  |  |  |  |
| C#Cc1cnc2ccc(C3=NOC(OC)(C(=O)NCc4cn(CC)nc4C)C3)cc2c1 (racemic) [compound 442] | 89% | 88% | 97% | 100% | 2.14[a] | 100% | 94% |  |  |  |  |  |
| C#Cc1cnc2ccc(C3=NOC(CC)(C(=O)NC4CCC4)C3)cc2c1 (racemic) [compound 447] | 89% | 100% | 75% | 75% | 2.94[a] | 97% |  |  |  |  |  |  |
| COC1(C(=O)NC2CC2)CC(c2ccc3ncc(I)cc3c2)=NO1 (racemic) [compound 450] | 89% | 91% | 98% | 98% | 2.48[a] | 100% |  |  |  |  |  |  |
| CC1(C(=O)NCc2ccc3c(c2)CCO3)CC(c2ccc3ncc(Br)cc3c2)=NO1 (centres unmarked) [compound 122] |  |  |  |  |  |  |  | 86% | 3.13^[a] |  |  |  |
| CCn1cc(CNC(=O)C2(C)CC(c3ccc4ncc(OC)cc4c3)=NO2)c(C)n1 (centres unmarked) [compound 135] | 89% |  | 100% |  |  |  |  |  | 1.83^[a] | 100% |  |  |
| CCn1cc(CNC(=O)C2(C)CC(c3ccc4ncc(-c5ccccc5)cc4c3)=NO2)c(C)n1 (centres unmarked) [compound 140] | 81% | 96% | 80% | 83% |  |  |  |  | 2.63^[a] |  |  |  |
| Cc1nn(C)c(C)c1CNC(=O)C1(C)CC(c2ccc3ncc(Br)cc3c2)=NO1 (centres unmarked) [compound 177] |  |  |  |  |  |  |  | 86% | 2.13^[a] |  |  |  |
| Cc1c(CNC(=O)C2(C)CC(c3ccc4ncc(Br)cc4c3)=NO2)cnn1C (centres unmarked) [compound 179] |  |  |  |  |  |  |  | 86% | 2.15^[a] |  |  |  |
| C#Cc1cnc2ccc(C3=NOC(C)(C(=O)NCc4ccc(Cl)cc4)C3)cc2c1 (centres unmarked) [compound 200] |  |  |  |  |  |  |  | 71% | 3.23^[a] |  |  |  |
| CC(NC(=O)C1(C)CC(c2ccc3ncc(Br)cc3c2)=NO1)c1ccccn1 (centres unmarked) [compound 205] |  | 70% | 100% | 75% |  | 84% |  |  | 2.14^[a] |  |  |  |
| C#CC1(NC(=O)C2(C)CC(c3ccc4ncc(Br)cc4c3)=NO2)CCCCC1 (centres unmarked) [compound 237] |  | 80% |  |  |  |  |  |  |  | 71% | 3.9^[a] |  |
| CCn1cc(CNC(=O)C2(C)CC(c3ccc4ncc(-c5cncnc5)cc4c3)=NO2)c(C)n1 (centres unmarked) [compound 265] | 88% | 96% |  |  |  |  |  |  |  |  | 1.62^[a] |  |
| COCC(COC)NC(=O)C1(C)CC(c2ccc3ncc(Br)cc3c2)=NO1 (centres unmarked) [compound 305] |  | 80% |  |  |  |  |  |  |  |  | 2.56[a] |  |
| COC1(C(=O)NC2CCC2)CC(c2ccc3ncc(Br)cc3c2)=NO1 (centres unmarked) [compound 414] | 89% | 100% | 100% | 98% | 2.84[a] | 100% |  |  |  |  |  |  |
| C/C(=N\O)C1(C(=O)NC(C)C)CC(c2ccc3ncc(Br)cc3c2)=NO1 (centres unmarked) [compound 420] | 94% | 97% |  |  | 2.58[a] |  |  |  |  |  |  |  |
| CC(C)NC(=O)C1(C)ON=C(c2ccc3ncc(Br)cc3c2)C1C(F)(F)F (centres unmarked) [compound 423] | 78% |  |  |  | 3.71[a] |  |  |  |  | 83% |  |  |
| C#Cc1cnc2ccc(C3=NOC(OC)(C(=O)NCC4COC(C)(C)O4)C3)cc2c1 (centres unmarked) [compound 476] | 90% | 77% | 97% | 98% | 2.35[a] | 100% | 85% |  |  |  |  |  |
| COC1(C(=O)NCC(O)CO)CC(c2ccc3ncc(Br)cc3c2)=NO1 (centres unmarked) [compound 477] | 90% | 86% |  | 75% | 1.59[a] |  | 98% |  |  |  |  |  |
| CC(C)NC(=O)C1(C(F)F)CC(c2ccc3ncc(Br)cc3c2)=NO1 (centres unmarked) [compound 480] | 90% | 83% |  |  |  |  |  |  |  |  |  |  |
| COC1(C(=O)NC2CCC2)CC(c2ccc3ncc(I)cc3c2)=NO1 (centres unmarked) [compound 482] | 83% | 98% | 100% | 100% | 2.95[a] | 100% |  |  |  |  |  |  |
| C#Cc1cnc2ccc(C3=NOC(C)(C(=O)NCc4ccsc4)C3)cc2c1 (centres unmarked) [compound 515] |  | 91% | 97% | 93% |  | 100% |  |  |  |  | 2.71[a] |  |
| C#Cc1cnc2ccc(C3=NOC(C=C)(C(=O)NCc4cn(CC)nc4C)C3)cc2c1 (centres unmarked) [compound 724] | 71% |  | 100% | 100% |  | 98% | 100% |  |  |  |  | 2.37[a] |
